{"source": "paper PMC8587544", "about": "“Identification of Novel Antagonists Targeting Cannabinoid Receptor 2 Using a Multi-Step Virtual Screening Strategy” (Molecules, 2021)", "key": {"[1]": {"biological_target": "CB2 receptor", "conditions": "cited from earlier work; for Ki: pharmacophore training set, ChEMBL27 database; for pKi: CB2 receptor"}, "[2]": {"biological_target": "T1, human CB2 receptor (Homo sapiens, UniProt P34972)", "T1 sequence (P34972 whole entry)": "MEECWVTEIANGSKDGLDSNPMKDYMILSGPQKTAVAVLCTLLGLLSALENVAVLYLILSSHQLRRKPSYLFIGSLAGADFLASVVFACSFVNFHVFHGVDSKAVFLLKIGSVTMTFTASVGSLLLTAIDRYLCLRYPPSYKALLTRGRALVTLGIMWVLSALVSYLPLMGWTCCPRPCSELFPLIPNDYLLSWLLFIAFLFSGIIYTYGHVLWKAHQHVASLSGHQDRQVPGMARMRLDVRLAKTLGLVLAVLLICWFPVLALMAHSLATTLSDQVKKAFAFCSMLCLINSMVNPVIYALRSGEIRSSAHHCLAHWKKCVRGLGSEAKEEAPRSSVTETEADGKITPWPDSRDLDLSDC", "assay": "Radioligand binding assays at human CB2 receptor ([3H]-CP55940)", "conditions": "[3H]-CP55940 0.8 nM, 90 min, 30 °C, read-out: Binding Affinities pKi (converted)", "method": "The 15 compounds were purchased from J&K Scientific Ltd. (Shanghai, China). The radioligand binding assays and functional assays to CB2 receptor were performed by Pharmaron (Beijing) upon commission. In the CB2 receptor assays, [^3H]-CP55940 was used as the radioligand; the 15 compounds were tested in radioligand binding assays at human CB2 receptor ([^3H]-CP55940). The competition binding experiments of the test compounds at ten different concentrations and [^3H]-CP55940 (0.8 nM) against CB2 receptor (2 μg/well) were performed for 90 min at 30 °C in 500 μL of assay buffer (25 mM HEPES, 10 mM MgCl2, 1 mM CaCl2, 0.5% BSA, pH 7.4)."}, "[3]": {"biological_target": "T2, human CB1 receptor (Homo sapiens, UniProt P21554)", "T2 sequence (P21554 whole entry)": "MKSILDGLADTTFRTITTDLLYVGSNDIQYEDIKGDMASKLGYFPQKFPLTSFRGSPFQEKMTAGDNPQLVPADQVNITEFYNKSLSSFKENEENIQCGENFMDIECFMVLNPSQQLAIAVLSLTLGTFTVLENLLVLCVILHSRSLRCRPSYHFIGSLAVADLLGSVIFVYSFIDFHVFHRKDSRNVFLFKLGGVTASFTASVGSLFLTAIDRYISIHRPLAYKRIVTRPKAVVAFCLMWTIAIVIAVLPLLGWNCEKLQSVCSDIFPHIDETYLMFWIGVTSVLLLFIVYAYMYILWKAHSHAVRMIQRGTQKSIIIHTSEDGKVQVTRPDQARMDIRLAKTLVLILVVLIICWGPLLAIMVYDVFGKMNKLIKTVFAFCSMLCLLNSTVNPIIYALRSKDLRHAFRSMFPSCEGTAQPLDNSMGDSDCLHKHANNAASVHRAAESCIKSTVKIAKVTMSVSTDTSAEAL", "assay": "Radioligand binding assays at human CB1 receptor", "conditions": "read-out: Binding affinities pKi (converted)", "method": "(§1) The binding and functional selectivity of the five compounds were tested by performing radioligand binding assays and cAMP functional assays against the CB1 receptor."}, "[4]": {"biological_target": "T2, human CB1 receptor", "assay": "cAMP functional assay against CB1 receptor", "type": "cell-based", "method": "as §1"}, "[5]": {"biological_target": "T1, human CB2 receptor", "assay": "cAMP functional assay in Flpin-CHO-CB2 cells (antagonism of CP55940-mediated decrease in cAMP)", "type": "cell-based", "method": "Compounds 1, 3, 6, 7, 8, 12, and 15 were further evaluated by cAMP functional assays.\nThe CB2 receptor antagonistic activities of the 7 compounds were evaluated by investigating CB2-mediated cAMP production in Flpin-CHO-K1 cells functional assay. The Flpin-CHO-K1 cells that are engineered to stably express human CB2 receptor (the Flpin-CHO-CB2 cells) were cultured in the growth medium (Ham’s F12K + 10%FBS + 1×Ps + 800 ug/mL HB) at 37 °C and 5% CO2. The cells were then collected by centrifugation and resuspended in Hank’s balanced salt solution (HBSS), 0.1% bovine serum albumin (BSA), 20 mM N-(2-hydroxyethyl)-piperazine-N0-ethanesulfonic acid (HEPES), and 500 μM 3-isobutyl-1-methylxanthine (IBMX). The test compounds were serially diluted in DMSO at 2-fold dilutions of 10 concentrations ranging from 10,000 μM to 20 μM. The antagonistic activities were evaluated by assessing their ability to counteract the agonist (CP55940)-mediated decrease in cAMP accumulation. The accumulation of cAMP was determined by following the manufacturer’s instructions for a Perkin Elmer cAMP kit."}, "[6]": {"conditions": "human CB2 receptor, Flpin-CHO-CB2 cells, antagonism of CP55940, read-out: cAMP Assay pIC50 (converted)"}, "[7]": {"conditions": "CB1 receptor, cAMP functional assay, read-out: antagonistic activities against the CB1 receptor"}, "[8]": {"conditions": "human CB1 receptor, read-out: cAMP assay pIC50 (converted)"}}, "note": "Where two headings read alike, the source gives them in different places."}
{"compound": "CSC(=S)N1CC2(CCCCC2)CS/C1=N\\c1cccc(C(C)C)c1", "note": "[CHEMBL231719]", "values": [{"measurement": "Ki", "setting": "[1]", "value": 2.5, "unit": "nM"}]}
{"compound": "SR144528", "values": [{"measurement": "pKi", "setting": "[1]", "value": "8.3–9.2"}]}
{"compound": "COc1cc(C(O)c2cccs2)cc(OC)c1-c1cc(Cl)cc(Cl)c1", "note": "(stereo not shown) [CHEMBL1076685]", "values": [{"measurement": "Ki", "setting": "[1]", "value": 0.2, "unit": "nM"}]}
{"compound": "CN(C(=O)c1nn(C)c2c1COc1ccccc1-2)c1cccc(C(F)(F)F)c1", "note": "[Compound 11]", "values": [{"measurement": "Ki", "setting": "[2]", "value": 13.8, "unit": "µM"}]}
{"compound": "O=C(NC1CCCCCC1)c1cc(-c2cccs2)nn1Cc1ccc(F)cc1", "note": "[Compound 15]", "values": [{"measurement": "Ki", "setting": "[3]", "value": 25.7, "unit": "µM"}, {"measurement": "Ki", "setting": "[2]", "value": 1.74, "unit": "µM"}, {"measurement": "IC50", "setting": "[4]; cAMP assay pIC50, human CB1 receptor", "value": 4.57, "unit": "µM"}, {"measurement": "IC50", "setting": "[5]", "value": 2.82, "unit": "µM"}]}
{"compound": "CCCCNC(=O)Cn1c(=O)n(-c2cccc(C(F)(F)F)c2)c(=O)c2sccc21", "note": "[Compound 10]", "values": [{"measurement": "Ki", "setting": "[2]", "value": 17.8, "unit": "µM"}]}
{"compound": "C[C@@H](NS(=O)(=O)C(F)(F)F)c1ccc(S(=O)(=O)c2ccoc2S(=O)(=O)c2ccccc2F)cc1", "note": "[CHEMBL1270480]", "values": [{"measurement": "Ki", "setting": "[1]", "value": 4.4, "unit": "nM"}]}
{"compound": "COCCn1c(C)c(C)sc1=NC(=O)C1C(C)(C)C1(C)C", "note": "[CHEMBL1668519]", "values": [{"measurement": "Ki", "setting": "[1]", "value": 0.64, "unit": "nM"}]}
{"compound": "COc1ccc(-n2c(=O)c3c4c(sc3n(Cc3ccc(F)cc3)c2=O)CN(C(C)=O)CC4)cc1", "note": "[Compound 6]", "values": [{"measurement": "Ki", "setting": "[2]", "value": 7.08, "unit": "µM"}, {"measurement": "IC50", "setting": "[5]; [6]", "value": "> 20", "unit": "µM"}]}
{"compound": "CCCCCn1cc(C(=O)NC23CC4CC(CC(C4)C2)C3)c(=O)c2cc(-c3ccc(O)cc3)ccc21", "note": "[CHEMBL1215918]", "values": [{"measurement": "Ki", "setting": "[1]", "value": 4.2, "unit": "nM"}]}
{"compound": "CC(=O)Nc1c2n(c3ccc(F)cc13)CC(C)(C(=O)NC1CCCC1)N(Cc1ccc(F)cc1)C2=O", "note": "(stereo not shown) [Compound 13]", "values": [{"measurement": "Ki", "setting": "[2]", "value": 33.1, "unit": "µM"}]}
{"compound": "O=C(Cn1c(=O)n(Cc2ccccc2)c(=O)c2sc3ccccc3c21)NC1CCCCC1", "note": "[Compound 4]", "values": [{"measurement": "Ki", "setting": "[2]", "value": "> 100", "unit": "µM"}]}
{"compound": "O=c1c2nccnc2nc(SCc2cccc(F)c2)n1Cc1cccs1", "note": "[Compound 12]", "values": [{"measurement": "Ki", "setting": "[3]", "value": 38, "unit": "µM"}, {"measurement": "Ki", "setting": "[2]", "value": 3.55, "unit": "µM"}, {"measurement": "IC50", "setting": "[4]; [7]", "value": "> 20", "unit": "µM"}, {"measurement": "IC50", "setting": "[5]; [6]", "value": 5.62, "unit": "µM"}]}
{"compound": "COc1cc(C2CC(=O)Nc3c2c(=O)n(C)c(=O)n3C)ccc1OCc1cccc(F)c1", "note": "(stereo not shown) [Compound 2]", "values": [{"measurement": "Ki", "setting": "[2]", "value": "> 100", "unit": "µM"}]}
{"compound": "Cc1cccn2c(=O)c(/C=C3\\SC(=S)N(Cc4ccco4)C3=O)c(NCC3CCCO3)nc12", "note": "(stereo not shown) [Compound 8]", "values": [{"measurement": "Ki", "setting": "[3]", "value": 3.39, "unit": "µM"}, {"measurement": "Ki", "setting": "[2]", "value": 0.219, "unit": "µM"}, {"measurement": "IC50", "setting": "[4]; [7]", "value": "> 20", "unit": "µM"}, {"measurement": "IC50", "setting": "[4]; [8]", "value": "> 20", "unit": "µM"}, {"measurement": "antagonistic activity towards the CB2 receptor in comparison to the CB1 receptor (selectivity)", "setting": "[5]; cAMP functional assays, CB2 over CB1", "value": "more than 100 times"}, {"measurement": "IC50", "setting": "[5]; [6]", "value": 0.117, "unit": "µM"}]}
{"compound": "CCOC(=O)c1c(NC(=O)C23CC4CC(CC(C4)C2)C3)sc2c1CCCC2", "note": "[CHEMBL3909238]", "values": [{"measurement": "Ki", "setting": "[1]", "value": 2.15, "unit": "nM"}]}
{"compound": "Cc1cc(S(=O)(=O)c2cc3cc(C(C)(C)C)cc(O)c3oc2=O)ccc1F", "note": "[Compound 9]", "values": [{"measurement": "Ki", "setting": "[2]", "value": 23.4, "unit": "µM"}]}
{"compound": "CCCCCCC1(c2cc(O)c3c(c2)OC(C)(C)[C@@H]2CC=C(C)C[C@@H]32)CCCC1", "note": "[CHEMBL108868]", "values": [{"measurement": "Ki", "setting": "[1]", "value": 1.91, "unit": "nM"}]}
{"compound": "NC(=O)c1nc(Nc2ccccc2)sc1NC(=O)C12CC3CC(CC(C3)C1)C2", "note": "[Compound 1]", "values": [{"measurement": "Ki", "setting": "[2]", "value": 1.58, "unit": "µM"}, {"measurement": "IC50", "setting": "[5]; [6]", "value": "> 20", "unit": "µM"}]}
{"compound": "Cc1ccc(C)c(CNC(=O)c2cc(-c3cccs3)nn2Cc2ccc(F)cc2)c1", "note": "[Compound 14]", "values": [{"measurement": "Ki", "setting": "[2]", "value": 17.8, "unit": "µM"}]}
{"compound": "COc1ccc(C(=O)c2c(C)n(CCN3CCOCC3)c3cc(I)ccc23)cc1", "note": "[AM630]", "values": [{"measurement": "pKi", "setting": "[1]", "value": 7.5}]}
{"compound": "COc1ccccc1Nc1sc(C(=O)c2ccccc2)c(N)c1S(=O)(=O)c1ccccc1", "note": "[Compound 3]", "values": [{"measurement": "Ki", "setting": "[3]", "value": 18.6, "unit": "µM"}, {"measurement": "Ki", "setting": "[2]", "value": 4.9, "unit": "µM"}, {"measurement": "IC50", "setting": "[4]; [7]", "value": "> 20", "unit": "µM"}, {"measurement": "IC50", "setting": "[5]; [6]", "value": 0.339, "unit": "µM"}]}
{"compound": "CC(=O)N1CCc2c(sc3c2c(=O)n(Cc2ccccc2)c(=O)n3Cc2c(F)cccc2Cl)C1", "note": "[Compound 7]", "values": [{"measurement": "Ki", "setting": "[3]", "value": 16.6, "unit": "µM"}, {"measurement": "Ki", "setting": "[2]", "value": 6.61, "unit": "µM"}, {"measurement": "IC50", "setting": "[4]; [8]", "value": 7.08, "unit": "µM"}, {"measurement": "IC50", "setting": "[5]; [6]", "value": 3.47, "unit": "µM"}]}
{"compound": "O=C(CSc1nc2nccnc2c(=O)n1Cc1ccc2c(c1)OCO2)Nc1ccc(F)cc1", "note": "[Compound 5]", "values": [{"measurement": "Ki", "setting": "[2]", "value": 38, "unit": "µM"}]}
